Structures are written as SMILES.

In one experiment the test system is Mfn2. The experiment in a line: Western blot, Mfn2 degradation in MEF WT. The format is cell-based, mouse. The conditions noted are these: MEF WT. On the procedure:
FIG. 6. ULKTACs rely on ULK1 for the redirection of autophagy components to mitochondria and subsequent mitophagic degradation (A) Western blot of mouse embryonic fibroblasts (MEF) WT and MEF ULK1/2^−/− treated with 1 mM ULKTACs, 5 mM CCCP or both and probed for ULK1, Mfn2 and Actin—quantification of the relative intensity of Mfn2 shown in (B), normalised to Actin. Representative immunofluorescence of MEF WT (C) and MEF ULK1/2^−/− (D) treated with 5 mM CCCP, 1 mM ULKTACs or both and immunostained for Alexa 488 ATP5a and Alexa 647 LC3B. Quantification of the colocalised LC3 to ATP5a spot area shown in WT vs ULK1/2^−/− treated MEF cells shown in (E). Data shown are mean±SEM, n=3, *p<0.05, ** p<0.01, *** p<0.001, Two-way ANOVA with Tukey's multiple comparisons test.
Cells were homogenised in protein lysis buffer consisting of 0.1 M Tris pH 8.0, 0.1 M NaCl, 5% glycerol, IGEPAL® CA-630 (#18896. Sigma-Aldrich) and 5 mM EDTA, 0.1 M N-ethyl maleimide (ThermoFisher, #23030) and protease inhibitor (Cell Signalling Technologies, #5871). Protein concentrations were determined using the BCA assay to ensure equal loading. […] The membranes were immunoblotted with primary antibodies, overnight at 4° C. ULK1 (D8H5) Rabbit mAb (#0854) [1:1000], Phospho-ULK1 (Ser 317) Rabbit antibody (#37762) [1:1000], LC3B Rabbit antibody (#2775) [1:1000], TOM20 (D8T4N) Rabbit mAb (#42406) [1:1000] and, Phospho-Ubiquitin (Ser 65) (E2J6T) Rabbit mAb (#62082) [1:500] were obtained from Cell Signalling Technologies. Recombinant Anti-Vinculin Rabbit antibody (EPR8185) (#ab129002) [1:5000] and Anti-Mitofusin2 mouse antibody (6A8) (#ab56889) [1:1000] were purchased from Abcam. Anti-Actin mouse monoclonal antibody (#A1978) [1:1000] and Anti-rabbit p62/SQSTM1 (#P0067) [1:1000], were purchased from Sigma-Aldrich. Mono- and polyubiquitinylated conjugates monoclonal antibody (FK2) (BML-PW8810-0100) [1:500] was purchased from Enzo Life Sciences. Anti BRD4 (E2A7X) rabbit monoclonal antibody (#13440), Anti c-MYC (D84C12) rabbit monoclonal antibody (#5605) [1:1000], Anti GAPDH (D4C6R) mouse monoclonal antibody (#97166) [1:1000], Anti Max (S20) rabbit monoclonal antibody (#4739) [1:1000] were purchased from Cell Signalling Technologies. Anti Phospho-CHK1 (Ser 345) rabbit monoclonal antibody (#2341) [1:1000], Anti gamma-H2AX (Ser 139) rabbit monoclonal antibody (#2577) [1:1000] were obtained from Cell Signalling Technologies, Anti RPA32/RPA2 (phospho S4/S8) rabbit monoclonal antibody (ab87277) [1:1000] were obtained from Abcam.
Membranes were then incubated with horseradish peroxidase (HRP)-conjugated secondary antibodies (Rabbit #7074 and Mouse #7076) purchased from Cell Signalling Technologies for 1 hour and the HRP signal was detected using EZ-ECL Enhanced Chemiluminescence Detection Kit for HRP (#20-500-500, Sartorius), and imaged with an Alliance Q9 Advanced (UVITec). Where required, membranes were stripped with mild stripping buffer consisting of 0.2 M glycine, 3.47 mM SDS, 1% Tween 20, pH 2.2, blocked for 1 hour with TBS-T+3% BSA and re-probed with primary antibodies.
Therefore, we conclude that NZ-65 and NZ-66 are novel ULKTAC molecules that initiate the recruitment of ULK1 to mitochondria, leading to an increase in local ULK1 activity, the formation of an autophagosome and mitophagy.

In another experiment the target is T1, ULK1 (Homo sapiens, UniProt O75385).
T1 sequence (O75385 1-1050): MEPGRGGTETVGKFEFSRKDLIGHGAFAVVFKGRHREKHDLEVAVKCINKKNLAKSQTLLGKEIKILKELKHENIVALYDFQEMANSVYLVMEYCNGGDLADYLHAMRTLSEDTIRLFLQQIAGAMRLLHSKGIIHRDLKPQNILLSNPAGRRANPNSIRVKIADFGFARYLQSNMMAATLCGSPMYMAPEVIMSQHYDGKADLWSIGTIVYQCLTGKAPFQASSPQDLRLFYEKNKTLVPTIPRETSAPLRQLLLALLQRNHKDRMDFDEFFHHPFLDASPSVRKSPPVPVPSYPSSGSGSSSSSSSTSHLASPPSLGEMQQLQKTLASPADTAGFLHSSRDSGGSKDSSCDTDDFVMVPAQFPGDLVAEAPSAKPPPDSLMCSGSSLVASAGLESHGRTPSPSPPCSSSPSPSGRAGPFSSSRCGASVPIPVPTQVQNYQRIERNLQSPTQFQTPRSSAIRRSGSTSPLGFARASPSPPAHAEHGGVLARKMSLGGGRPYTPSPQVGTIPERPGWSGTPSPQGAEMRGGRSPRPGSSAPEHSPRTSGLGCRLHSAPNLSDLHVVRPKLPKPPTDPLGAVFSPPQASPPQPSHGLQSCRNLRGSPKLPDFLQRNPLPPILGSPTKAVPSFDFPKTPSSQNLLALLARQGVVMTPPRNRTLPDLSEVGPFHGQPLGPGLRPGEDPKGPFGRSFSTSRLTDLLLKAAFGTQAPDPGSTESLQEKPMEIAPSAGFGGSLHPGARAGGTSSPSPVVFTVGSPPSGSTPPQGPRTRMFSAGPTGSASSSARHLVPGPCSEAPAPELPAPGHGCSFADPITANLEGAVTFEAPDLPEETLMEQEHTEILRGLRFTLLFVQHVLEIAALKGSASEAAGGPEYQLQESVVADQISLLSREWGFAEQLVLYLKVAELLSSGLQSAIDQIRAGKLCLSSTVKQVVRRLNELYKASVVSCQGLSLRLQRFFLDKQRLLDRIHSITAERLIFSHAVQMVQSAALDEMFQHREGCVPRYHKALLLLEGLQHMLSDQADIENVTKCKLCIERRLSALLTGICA
In words: in vitro kinase assay measuring ATP consumption. The class given is biochemical. The conditions noted are these: versus BL-918. From the text:
Next, we designed a chimeric compound composed of a BL-918 derivative (referred to as NZ-60 herein) as our autophagy activator linked to the TSPO ligand as our targeting warhead to the outer mitochondrial membrane, utilising Huisgen-Sharpless click chemistry for the key linkage step^38-41. We designed a chemical synthesis route in 9 steps to produce two ULKTACs, NZ-65 and NZ-66. NZ-65 employs a polyethylene glycol (PEG) linker while NZ-66 uses a six carbon hexane linker (FIG. 3A). The resulting molecules were >99% pure as verified by LCMS. […] Importantly, key interactions shown to be necessary for the activation of ULK1 in its kinase domain, namely, Arg18, Lys50, Asn86 and Tyr89^8, appear to be maintained.

Consider `O=C(Nc1cc(C(F)(F)F)cc(C(F)(F)F)c1)N[C@@H](C(=O)Nc1ccc(F)cc1F)c1ccc(OCc2cn(CCOCCOCCNC(=O)C(=O)c3c(-c4ccccc4)[nH]c4ccccc34)nn2)cc1` [NZ-65, (R)-2-(3-(3,5-bis(trifluoromethyl)phenyl)ureido)-N-(2,4-difluorophenyl)-2-(4-((1-(2-(2-(2-(2-oxo-2-(2-phenyl-1H-indol-3-yl)acetamido)ethoxy)ethoxy)ethyl)-1H-1,2,3-triazol-4-yl)methoxy)phenyl) acetamide], for which the “degradation of Mfn2” value in the experiment on Mfn2 (co-treatment with CCCP) is listed as “further enhanced by co-treatment with CCCP”; in the experiment on Mfn2 (compound alone), “degradation of Mfn2”. Further, the “activation of ULK1 vs BL-918” value at ULK1 is recorded as “comparable activity”.

`O=C(Nc1cc(C(F)(F)F)cc(C(F)(F)F)c1)N[C@@H](C(=O)Nc1ccc(F)cc1F)c1ccc(OCc2cn(CCCCCCNC(=O)C(=O)c3c(-c4ccccc4)[nH]c4ccccc34)nn2)cc1` [NZ-66, (R)-2-(3-(3,5-bis(trifluoromethyl)phenyl)ureido)-N-(2,4-difluorophenyl)-2-(4-((1-(6-(2-oxo-2-(2-phenyl-1H-indol-3-yl)acetamido)hexyl)-1H-1,2,3-triazol-4-yl)methoxy)phenyl) acetamide]: the results for the “degradation of Mfn2” value in the experiment with Mfn2 (co-treatment with CCCP) and with Mfn2 (compound alone) were “further enhanced by co-treatment with CCCP” and “degradation of Mfn2”, respectively. The “activation of ULK1 vs BL-918” value at ULK1 is listed as “comparable activity”.

The values above are taken from patent US20260335323A1, “CHIMERIC MOLECULE” (UCL Business Ltd, priority 2023, published 2026).
